Values joined by “and” are separate entries in the source; they are usually repeats but may differ in a detail not shown here. Equal values may be shown once.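 Step 1: Grow cells in 96-well plates. Step 2: Expose to compound for 48 hours at 5 concentrations. Step 3: Interpolate endpoints linearly; if unreached, use highest concentration. GI50 marks 50% less growth.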 Active and inactive are the calls of the source. Rule as the data show it: active = GI50 up to about 1.1 µM and inactive = higher.
Assays:
Assay in all cases: NCI tumour cell line growth inhibition, 48 h
OVCAR-5 = test system: OVCAR-5
EKVX = test system: EKVX
SR = test system: SR
HT-29 = test system: HT-29
OVCAR-3 = test system: OVCAR-3
ACHN = test system: ACHN
NCI/ADR-RES = test system: NCI/ADR-RES
Malme-3M = test system: Malme-3M
SNB-19 = test system: SNB-19
UACC-62 = test system: UACC-62
RXF 393 = test system: RXF 393
SK-MEL-28 = test system: SK-MEL-28
NCI-H522 = test system: NCI-H522
UO-31 = test system: UO-31
SNB-75 = test system: SNB-75
SK-MEL-2 = test system: SK-MEL-2
MDA-MB-435 = test system: MDA-MB-435
HCC 2998 = test system: HCC 2998
HOP-62 = test system: HOP-62

Row | SMILES | GI50 (OVCAR-5) | GI50 (EKVX) | GI50 (SR) | GI50 (HT-29) | GI50 (OVCAR-3) | GI50 (ACHN) | GI50 (NCI/ADR-RES) | GI50 (Malme-3M) | GI50 (SNB-19) | GI50 (UACC-62) | GI50 (RXF 393) | GI50 (SK-MEL-28) | GI50 (NCI-H522) | GI50 (UO-31) | GI50 (SNB-75) | GI50 (SK-MEL-2) | GI50 (MDA-MB-435) | GI50 (HCC 2998) | GI50 (HOP-62)
1 | COc1cc(C2C(Cl)C(=O)N2NC(=O)c2ccc(NC(C)=O)cc2OC)ccc1O (centres undefined) | 13.2 µM (inactive) | 13.6 µM (inactive) | 7.29 µM (inactive) | 15.1 µM (inactive) | 21.4 µM (inactive) | 23.3 µM (inactive) | 37.5 µM (inactive) | 24.4 µM (inactive) | 17.4 µM (inactive) | 18.1 µM (inactive) | 20.6 µM (inactive) | 28.7 µM (inactive) | 8.45 µM (inactive) | 25.1 µM (inactive) | 29.4 µM (inactive) | 14.5 µM (inactive) | 28 µM (inactive) |  | 
2 | COC1CC(O)C(OC(=O)c2ccccc2)C(C)O1 (centres undefined) | > 100 µM (inactive) |  | > 100 µM (inactive) | > 100 µM (inactive) | > 100 µM (inactive) |  |  | > 100 µM (inactive) | > 100 µM (inactive) | > 100 µM (inactive) |  | > 100 µM (inactive) | > 100 µM (inactive) |  |  |  |  | > 100 µM (inactive) | > 100 µM (inactive)
3 | O=C(CC1C(=O)Nc2ccccc2S1(=O)=O)Nc1ccc(Cl)cc1 (centres undefined) | 78.9 µM (inactive) |  | 4.7 µM (inactive) | 29.9 µM (inactive) | 15.2 µM (inactive) | 20.4 µM (inactive) |  | 22.7 µM (inactive) | 18.8 µM (inactive) | 43 µM (inactive) | 15.9 µM (inactive) | 20 µM (inactive) | 16.3 µM (inactive) | 17.1 µM (inactive) | 16.9 µM (inactive) | 21.1 µM (inactive) |  | 18.4 µM (inactive) | 
4 | C=C1C(=O)C23CC1CCC2C12CO[C@@H]4OCC(C)(CC[C@@H]1OC3=O)C42 (some centres undefined) | 15.8 µM (inactive) | 15.5 µM (inactive) | 1.35 µM (inactive) | 2.54 µM (inactive) | 6.49 µM (inactive) | 3.14 µM (inactive) |  | 2.3 µM (inactive) | 8 µM (inactive) | 11.7 µM (inactive) | 2.51 µM (inactive) | 2.23 µM (inactive) | 1.01 µM (active) | 9.71 µM (inactive) | 16.4 µM (inactive) | 11.9 µM (inactive) |  | 16.4 µM (inactive) | 27 µM (inactive)
5 | O=c1oc2c3ccc4ccccc4c3n(CCCN3CCCCC3)c2c2ccccc12 | > 100 µM (inactive) | > 100 µM (inactive) | 3.59 µM (inactive) | 8.39 µM (inactive) | > 100 µM (inactive) | > 100 µM (inactive) |  | 20.7 µM (inactive) | > 100 µM (inactive) | > 100 µM (inactive) |  | 19.1 µM (inactive) | > 100 µM (inactive) | > 100 µM (inactive) | 52.2 µM (inactive) | > 100 µM (inactive) |  | > 100 µM (inactive) | > 100 µM (inactive)
6 | Nc1nc(Cl)cc(NCC(O)CO)n1 (centres undefined) | > 100 µM (inactive) | > 100 µM (inactive) | > 100 µM (inactive) | > 100 µM (inactive) | > 100 µM (inactive) |  |  | > 100 µM (inactive) | > 100 µM (inactive) | > 100 µM (inactive) | > 100 µM (inactive) | > 100 µM (inactive) |  | > 100 µM (inactive) | > 100 µM (inactive) | > 100 µM (inactive) |  | > 100 µM (inactive) | > 100 µM (inactive)
7 | O=C(Nc1cc(Cl)c(Cl)cc1Cl)C(=O)C(C(=O)c1ccc(Cl)c(Cl)c1)C1OC(=O)c2ccccc21 (centres undefined) | 11.1 µM (inactive) | 19.6 µM (inactive) | 4.39 µM (inactive) | 18.5 µM (inactive) | 13.7 µM (inactive) | 14.5 µM (inactive) |  | > 10 µM (inactive) | 15.5 µM (inactive) | 16.1 µM (inactive) | 8.3 µM (inactive) |  | 10.9 µM (inactive) | 16.8 µM (inactive) |  | 14 µM (inactive) |  | 18.8 µM (inactive) | 12.6 µM (inactive)
8 | CC(C)(C)C1=Nc2c(Br)cc(C(C)(C)C)cc2C(C(F)(F)F)(C(F)(F)F)O1 | > 100 µM (inactive) | > 100 µM (inactive) | 54 µM (inactive) | 57.9 µM (inactive) | 17 µM (inactive) | 45 µM (inactive) |  | > 100 µM (inactive) | 70.8 µM (inactive) | > 100 µM (inactive) | 22.5 µM (inactive) | 32.7 µM (inactive) | 31.1 µM (inactive) | 47.2 µM (inactive) | > 100 µM (inactive) | > 100 µM (inactive) |  | 29.9 µM (inactive) | > 100 µM (inactive)
9 | COC(=O)C1CCCC2(C1)OCCO2 (centres undefined) | > 100 µM (inactive) | > 100 µM (inactive) | > 100 µM (inactive) | > 100 µM (inactive) | > 100 µM (inactive) | > 100 µM (inactive) |  | > 100 µM (inactive) | > 100 µM (inactive) | > 100 µM (inactive) | > 100 µM (inactive) | > 100 µM (inactive) | > 100 µM (inactive) | > 100 µM (inactive) | > 100 µM (inactive) | > 100 µM (inactive) |  | > 100 µM (inactive) | > 100 µM (inactive)
10 | CCOC(=O)C1([Se]c2ccccc2)CCCC1=O (centres undefined) | 40.8 µM (inactive) | 23.6 µM (inactive) | 14 µM (inactive) | 37.8 µM (inactive) | 26.6 µM (inactive) | 20.3 µM (inactive) |  | 32.6 µM (inactive) | 44.1 µM (inactive) | 14.7 µM (inactive) | 7.82 µM (inactive) | 18.9 µM (inactive) | 3.6 µM (inactive) | 23.6 µM (inactive) | 23.6 µM (inactive) | 32.8 µM (inactive) |  | 25.9 µM (inactive) | 96.8 µM (inactive)
11 | COc1ccc(NC(=O)CC/C(CC(=O)C(C)(C)C)=N\NC(=O)C(N)=O)cc1 | > 100 µM (inactive) | > 100 µM (inactive) | > 100 µM (inactive) | > 100 µM (inactive) | > 100 µM (inactive) | > 100 µM (inactive) |  | > 100 µM (inactive) | > 100 µM (inactive) | > 100 µM (inactive) | > 100 µM (inactive) | > 100 µM (inactive) |  | > 100 µM (inactive) |  | > 100 µM (inactive) |  | > 100 µM (inactive) | > 100 µM (inactive)
12 | O=C1C(=Cc2c(O)cc(O)cc2O)C(=O)c2ccccc21 | > 43 µM (inactive) | > 79.8 µM (inactive) | 13.6 µM (inactive) | > 42.1 µM (inactive) | > 40.6 µM (inactive) | > 40.8 µM (inactive) |  | > 44.6 µM (inactive) | > 42.6 µM (inactive) | > 40.5 µM (inactive) | 14.3 µM (inactive) | > 45.8 µM (inactive) | > 46 µM (inactive) | > 100 µM (inactive) | 26.3 µM (inactive) | > 40.1 µM (inactive) |  | > 41.9 µM (inactive) | > 100 µM (inactive)
13 | N#C/C(=C1\OC(=N)C(c2ccccc2)C1=O)c1ccccc1 (centres undefined) | > 100 µM (inactive) | 36.5 µM (inactive) |  | 22.5 µM (inactive) | 28.1 µM (inactive) | 16.3 µM (inactive) |  | 18.9 µM (inactive) | > 100 µM (inactive) | 22.2 µM (inactive) | 17.9 µM (inactive) | 13.3 µM (inactive) | 8.81 µM (inactive) | 19.6 µM (inactive) | 28.3 µM (inactive) | > 52.2 µM (inactive) |  | 90.2 µM (inactive) | > 100 µM (inactive)
14 | Cc1ccc(S(=O)(=O)OCC/C(=C\[Si](C)(C)C)c2ccccc2)cc1 | > 100 µM (inactive) | > 100 µM (inactive) | 24 µM (inactive) | > 100 µM (inactive) | > 100 µM (inactive) | > 100 µM (inactive) |  | > 100 µM (inactive) | > 100 µM (inactive) | > 100 µM (inactive) | > 100 µM (inactive) | > 100 µM (inactive) | > 100 µM (inactive) | > 100 µM (inactive) | > 100 µM (inactive) | > 100 µM (inactive) |  | > 100 µM (inactive) | > 100 µM (inactive)
15 | O=C(NC1CC1)c1c(O)[nH]c(=S)[nH]c1=O | > 100 µM (inactive) |  | > 100 µM (inactive) | > 100 µM (inactive) | > 100 µM (inactive) | > 100 µM (inactive) |  | > 100 µM (inactive) | > 100 µM (inactive) | > 100 µM (inactive) |  | > 100 µM (inactive) | > 100 µM (inactive) | > 100 µM (inactive) | > 100 µM (inactive) | > 100 µM (inactive) |  |  | > 100 µM (inactive)
16 | O=C(O)C12C3CCC(O3)C1(C(=O)O)C1CCC2O1 (centres undefined) | > 100 µM (inactive) |  |  | > 100 µM (inactive) | > 100 µM (inactive) | > 100 µM (inactive) | > 100 µM (inactive) | > 100 µM (inactive) | > 100 µM (inactive) | > 100 µM (inactive) | > 100 µM (inactive) and 53.6 µM (inactive) | > 100 µM (inactive) | > 100 µM (inactive) | > 100 µM (inactive) | > 100 µM (inactive) | > 100 µM (inactive) | > 100 µM (inactive) | > 100 µM (inactive) | > 100 µM (inactive)
17 | COc1ccc(-c2cc(=O)c3cc(C)c(C)c(C(=O)O)c3o2)cc1 |  | > 100 µM (inactive) | > 100 µM (inactive) | > 100 µM (inactive) | > 100 µM (inactive) | 17.9 µM (inactive) |  |  | > 100 µM (inactive) | 13.6 µM (inactive) | > 100 µM (inactive) | > 100 µM (inactive) |  | > 100 µM (inactive) | > 100 µM (inactive) | > 100 µM (inactive) |  | > 100 µM (inactive) | > 100 µM (inactive)
18 | O=C(N/N=C/c1cccc(F)c1)c1ccncc1 |  |  | > 100 µM (inactive) | > 100 µM (inactive) |  | > 100 µM (inactive) |  | > 100 µM (inactive) | > 100 µM (inactive) |  | > 100 µM (inactive) | > 100 µM (inactive) | > 10 µM (inactive) |  | > 100 µM (inactive) | > 100 µM (inactive) |  | > 100 µM (inactive) | > 100 µM (inactive)
